Assay [1] in a line: Inhibition of full-length recombinant human HDAC3/NcoR2 using RHKKAc peptide as substrate by fluorescence based assay.
The target of assay [2] is T1, Histone deacetylase 1 (Homo sapiens, UniProt Q13547). Put plainly: Inhibition of recombinant human HDAC1 using fluorogenic substrate.
Assay [3] concerns the target T2, Histone deacetylase 2 (Homo sapiens, UniProt Q92769). Nature of the assay: Inhibition of recombinant human HDAC2 using fluorogenic substrate.
Assay [4] concerns the target Histone deacetylase 3 (Homo sapiens, UniProt O15379). Nature of the assay: Inhibition of recombinant human HDAC3 using fluorogenic substrate.
Assay [5] deals with T3, Polyamine deacetylase HDAC10 (Homo sapiens, UniProt Q969S8).
T3 sequence (Q969S8 whole entry): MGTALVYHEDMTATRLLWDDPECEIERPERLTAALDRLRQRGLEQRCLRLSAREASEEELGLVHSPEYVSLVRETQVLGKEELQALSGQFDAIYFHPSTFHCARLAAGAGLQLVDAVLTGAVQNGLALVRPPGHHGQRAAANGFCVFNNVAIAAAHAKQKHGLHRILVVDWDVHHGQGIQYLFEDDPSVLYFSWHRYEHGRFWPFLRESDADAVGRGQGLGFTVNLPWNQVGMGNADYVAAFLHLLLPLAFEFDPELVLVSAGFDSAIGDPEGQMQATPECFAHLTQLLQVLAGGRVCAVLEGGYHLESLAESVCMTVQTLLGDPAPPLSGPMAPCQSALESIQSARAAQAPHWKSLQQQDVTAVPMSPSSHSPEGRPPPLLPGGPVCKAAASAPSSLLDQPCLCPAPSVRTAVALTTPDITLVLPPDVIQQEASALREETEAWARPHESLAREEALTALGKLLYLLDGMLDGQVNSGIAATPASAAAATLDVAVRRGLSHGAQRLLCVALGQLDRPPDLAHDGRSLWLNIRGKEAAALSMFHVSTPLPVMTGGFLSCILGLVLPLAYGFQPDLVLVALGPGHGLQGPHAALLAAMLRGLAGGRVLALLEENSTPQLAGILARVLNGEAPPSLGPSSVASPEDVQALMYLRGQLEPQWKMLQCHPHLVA
Nature of the assay: Inhibition of recombinant human HDAC10 using fluorogenic substrate.

Assay [6] deals with T1, Histone deacetylase 1. Put plainly: Inhibition of HDAC1 (unknown origin).
Assay [7] has as its target T2, Histone deacetylase 2. Put plainly: Inhibition of HDAC2 (unknown origin).
In assay [8] the target is T4, Protein deacetylase HDAC6 (Homo sapiens, UniProt Q9UBN7).
T4 sequence (Q9UBN7 whole entry): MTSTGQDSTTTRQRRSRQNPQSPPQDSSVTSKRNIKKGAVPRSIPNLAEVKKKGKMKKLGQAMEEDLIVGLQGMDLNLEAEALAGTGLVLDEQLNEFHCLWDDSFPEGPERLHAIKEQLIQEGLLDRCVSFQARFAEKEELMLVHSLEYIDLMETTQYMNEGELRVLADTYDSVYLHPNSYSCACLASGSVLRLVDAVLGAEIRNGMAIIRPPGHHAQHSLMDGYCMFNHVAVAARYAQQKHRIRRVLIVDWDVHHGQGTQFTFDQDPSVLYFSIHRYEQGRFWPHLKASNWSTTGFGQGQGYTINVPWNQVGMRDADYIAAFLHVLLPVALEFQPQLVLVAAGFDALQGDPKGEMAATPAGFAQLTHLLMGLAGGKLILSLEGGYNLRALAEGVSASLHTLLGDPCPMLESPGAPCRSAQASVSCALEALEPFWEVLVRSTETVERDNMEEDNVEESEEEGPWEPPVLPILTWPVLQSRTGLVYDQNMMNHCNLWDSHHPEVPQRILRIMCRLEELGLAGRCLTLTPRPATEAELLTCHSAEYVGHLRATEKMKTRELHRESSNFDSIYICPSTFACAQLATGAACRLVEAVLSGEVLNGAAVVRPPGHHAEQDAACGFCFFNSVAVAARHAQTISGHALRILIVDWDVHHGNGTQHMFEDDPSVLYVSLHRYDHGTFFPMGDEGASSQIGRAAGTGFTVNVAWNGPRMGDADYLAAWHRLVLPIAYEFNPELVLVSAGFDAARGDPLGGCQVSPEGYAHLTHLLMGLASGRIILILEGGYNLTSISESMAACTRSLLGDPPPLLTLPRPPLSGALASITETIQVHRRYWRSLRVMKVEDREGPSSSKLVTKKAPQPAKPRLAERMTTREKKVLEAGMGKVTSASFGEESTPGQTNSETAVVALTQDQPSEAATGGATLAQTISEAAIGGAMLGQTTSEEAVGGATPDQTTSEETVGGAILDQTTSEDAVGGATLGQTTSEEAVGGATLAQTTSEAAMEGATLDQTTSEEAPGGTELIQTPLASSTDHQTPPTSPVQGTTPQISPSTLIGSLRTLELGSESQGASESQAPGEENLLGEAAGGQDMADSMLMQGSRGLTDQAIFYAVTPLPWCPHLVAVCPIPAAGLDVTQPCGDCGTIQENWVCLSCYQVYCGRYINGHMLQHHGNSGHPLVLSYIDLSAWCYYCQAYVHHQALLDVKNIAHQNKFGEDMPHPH
Nature of the assay: Inhibition of HDAC6 (unknown origin).

Assay [9] concerns the target High affinity cGMP-specific 3',5'-cyclic phosphodiesterase 9A (Homo sapiens, UniProt O76083). Nature of the assay: Inhibition of PDE9 (unknown origin).
Assay [10] concerns the target cGMP-specific 3',5'-cyclic phosphodiesterase (Homo sapiens, UniProt O76074). Put plainly: Inhibition of PDE5 (unknown origin).

Bounds are passed on as bounds.

T1 sequence (Q13547 whole entry): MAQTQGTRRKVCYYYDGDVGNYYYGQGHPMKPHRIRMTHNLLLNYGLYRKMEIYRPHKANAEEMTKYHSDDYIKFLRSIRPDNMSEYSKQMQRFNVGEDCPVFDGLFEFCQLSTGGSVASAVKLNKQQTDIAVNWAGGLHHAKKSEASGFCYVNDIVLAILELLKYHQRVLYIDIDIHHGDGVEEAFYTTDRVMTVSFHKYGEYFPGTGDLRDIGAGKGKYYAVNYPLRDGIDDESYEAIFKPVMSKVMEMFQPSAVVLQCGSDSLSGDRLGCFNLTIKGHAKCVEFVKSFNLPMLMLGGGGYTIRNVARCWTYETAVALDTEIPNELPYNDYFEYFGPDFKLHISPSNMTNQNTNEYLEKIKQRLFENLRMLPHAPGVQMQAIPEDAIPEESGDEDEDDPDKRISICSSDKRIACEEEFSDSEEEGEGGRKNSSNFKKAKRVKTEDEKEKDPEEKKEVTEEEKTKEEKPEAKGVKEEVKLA
T2 sequence (Q92769 whole entry): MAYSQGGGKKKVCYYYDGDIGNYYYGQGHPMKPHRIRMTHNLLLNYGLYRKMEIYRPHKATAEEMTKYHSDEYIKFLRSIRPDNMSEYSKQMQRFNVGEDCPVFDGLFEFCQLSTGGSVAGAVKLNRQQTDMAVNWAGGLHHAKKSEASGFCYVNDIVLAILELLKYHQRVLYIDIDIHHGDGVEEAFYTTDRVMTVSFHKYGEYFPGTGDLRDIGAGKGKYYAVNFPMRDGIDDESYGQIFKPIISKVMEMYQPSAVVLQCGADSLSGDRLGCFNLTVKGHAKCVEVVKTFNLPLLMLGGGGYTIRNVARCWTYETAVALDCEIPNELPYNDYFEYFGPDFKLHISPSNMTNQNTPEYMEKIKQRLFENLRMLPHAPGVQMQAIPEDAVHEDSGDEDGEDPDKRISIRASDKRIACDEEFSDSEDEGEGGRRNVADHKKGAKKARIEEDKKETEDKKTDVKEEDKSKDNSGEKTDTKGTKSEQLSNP
Histone deacetylase 3, sequence (O15379 whole entry): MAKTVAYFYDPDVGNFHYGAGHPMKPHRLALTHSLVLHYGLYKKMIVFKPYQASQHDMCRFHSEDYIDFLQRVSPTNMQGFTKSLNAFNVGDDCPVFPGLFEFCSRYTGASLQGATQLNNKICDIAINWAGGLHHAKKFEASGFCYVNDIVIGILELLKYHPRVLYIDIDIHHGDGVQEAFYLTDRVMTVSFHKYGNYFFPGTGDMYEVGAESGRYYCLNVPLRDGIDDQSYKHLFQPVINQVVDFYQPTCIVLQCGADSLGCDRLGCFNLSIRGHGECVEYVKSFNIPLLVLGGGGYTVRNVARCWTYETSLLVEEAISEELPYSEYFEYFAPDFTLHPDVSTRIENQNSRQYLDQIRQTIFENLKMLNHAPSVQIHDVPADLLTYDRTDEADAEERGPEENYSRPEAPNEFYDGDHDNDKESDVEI
High affinity cGMP-specific 3',5'-cyclic phosphodiesterase 9A, sequence (O76083 whole entry): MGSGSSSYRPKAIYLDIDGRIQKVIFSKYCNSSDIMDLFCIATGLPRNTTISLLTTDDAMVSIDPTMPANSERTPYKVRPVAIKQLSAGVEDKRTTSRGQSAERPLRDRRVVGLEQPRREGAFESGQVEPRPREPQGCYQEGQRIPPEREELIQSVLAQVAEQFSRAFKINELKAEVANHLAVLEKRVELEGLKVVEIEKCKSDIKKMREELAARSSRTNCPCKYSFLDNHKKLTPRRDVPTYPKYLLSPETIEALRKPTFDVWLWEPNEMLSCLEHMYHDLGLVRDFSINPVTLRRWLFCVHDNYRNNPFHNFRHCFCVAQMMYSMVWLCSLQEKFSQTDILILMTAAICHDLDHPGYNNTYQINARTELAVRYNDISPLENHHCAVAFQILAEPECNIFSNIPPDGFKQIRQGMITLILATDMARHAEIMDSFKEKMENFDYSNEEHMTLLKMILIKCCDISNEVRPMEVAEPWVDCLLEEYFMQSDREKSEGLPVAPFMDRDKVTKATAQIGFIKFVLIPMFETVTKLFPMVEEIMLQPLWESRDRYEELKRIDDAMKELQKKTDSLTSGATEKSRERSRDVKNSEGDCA

Take `O=C(NO)c1ccc(CN2CCCc3cc(Cl)ccc32)cc1`: in assay [1], the half-inhibitory concentration (IC50) turned out to be 29.5 µM.
Consider `CN(Cc1ccc(C(=O)NO)cc1[18F])CC12CC3CC(CC(C3)C1)C2`, for which the concentration for half-maximal inhibition (IC50) in [2], in assay [3], in assay [4] and in assay [5] was above 10 µM in each case.
Turning to `C[C@@H]1CN(Cc2ccc(C(=O)NO)cc2)C[C@H]1c1nc2c(cnn2C2CCCC2)c(=O)[nH]1`, the IC50 is 0.593 µM in [6]; 3.53 µM in [7]; 0.04 µM in assay [8]; 0.107 µM in assay [9]; above 10 µM in [10].

One may read the IC50 as the concentration at which inhibition is half-maximal.

For the origin of these results see ChEMBL document CHEMBL5136990, “Histone deacetylase 6 inhibitors with blood-brain barrier penetration as a potential strategy for CNS-Disorders therapy” (Eur J Med Chem, 2022).
